According to US20230233492A1, “PHARMACEUTICAL COMBINATION COMPRISING A BRAIN AMINOPEPTIDASE A INHIBITOR, A DIURETIC AND A BLOCKER OF THE SYSTEMIC RENIN-ANGIOTENSIN SYSTEM” (QUANTUM GENOMICS, priority 2020, published 2023):

Columns and labels:
[1] = system: conscious hypertensive DOCA-salt rats; experiment: Acute oral administration: MABP and HR recording in conscious freely moving DOCA-salt rats; assay type: in vivo, rat; conditions: single oral administration
Protocol: Male deoxycorticosterone acetate (DOCA)-salt rats weighing 250 to 350 g were purchased from Charles River Laboratories (L'Arbresle, France). Animals were randomly assigned in each group with allocation concealment, and blinding procedures were used with coding systemAnimal care and surgical procedures were performed according to the Directive 2010/63/EU. The project was submitted to the appropriate ethics committee and authorization was obtained: 30 CEEA No 59, reference number 01962.01. Animals were kept under artificial light (12 h light/12 h dark cycle) with ad libitum access to a standard diet and saline water (0.9% NaCl, 0.2% KCl).
Male DOCA-salt rats were anesthetized with 3% isoflurane (Iso-Vet®, Piramal, UK) for induction and 1.5-2% isoflurane for maintenance. A catheter (0.011″X.024″X.0065″) was inserted into the right femoral artery to monitor mean arterial blood pressure (MABP) and heart rate (HR). The catheters were tunneled subcutaneously to exit from the neck. Animals were allowed to recover from surgery for at least 48 h before MABP recording. Baseline MABP was recorded before drug administration during 30 minutes to 1 hour. One hour after the start of BP recording, firibastat (30 mg/kg), enalapril (5 or 10 mg/kg) and HCTZ (5 or 10 mg/kg) alone or in combination at different doses were administered to the conscious unrestrained rats by oral route. After compound administration, BP was monitored for 6 hours. MABP was calculated with the […] system (Phymep, Paris, France), consisting of a MatLab hardware unit and CHART software, running on a Macintosh computer. MABP and HR measurements were calculated by the BP signal.

[2] = system: conscious hypertensive deoxycorticosterone acetate (DOCA) salt rats; conditions: oral administrations, 15 to 150 mg/kg; cited from earlier work
[3] = system: hypertensive patients; conditions: monotherapy; mild to moderate hypertensive patients and diverse high-risk hypertensive population; cited from earlier work
[4] = system: spontaneously hypertensive rats (SHRs); conditions: oral administrations, 15 to 150 mg/kg; cited from earlier work

## CCOC(=O)[C@H](CCc1ccccc1)N[C@@H](C)C(=O)N1CCC[C@H]1C(=O)O [enalapril]
[1]; enalapril 10 mg/kg alone
  change in BP: did not induce any significant change in BP

## N[C@@H](CCS(=O)(=O)O)CSSC[C@@H](N)CCS(=O)(=O)O [firibastat, (3S,3S′) 4,4′-disulfanediylbis(3-aminobutane 1-sulfonic acid)]
[2]
  effect on BP: dose-dependent decrease in BP
[3]
  effect on BP: lower BP
[1]; firibastat 30 mg/kg alone, 5 h post-dosing
  decrease in BP (change in MABP from baseline): −35.4±5.2 mmHg
[4]
  effect on BP: dose-dependent decrease in BP

## NS(=O)(=O)c1cc2c(cc1Cl)NCNS2(=O)=O [HCTZ, hydrochlorothiazide]
[1]; HCTZ 10 mg/kg alone
  change in BP: did not induce any significant change in BP
